Test results reported in US20240238238A1, “Isotopically Modified Composition and Therapeutic Uses Thereof” (BioJiva LLC, priority 2018, published 2024).

Tests used:
[1] = system: Friedreich's ataxia patients; experiment: Phase I/II double blind, comparator-controlled trial: safety and tolerability; type: in vivo, human; settings: for Safety and tolerability: oral, 1.8 or 9.0 g/day, FRDA patients
Procedure: A phase I/II double blind, comparator-controlled trial with 2 doses of 11,11-D2-linoleic acid ethyl ester in Friedreich's ataxia patients (9 subjects in each cohort) was conducted. Subjects were randomized 2:1 to receive either 11,11-D2-linoleic acid ethyl ester (1.8 or 9.0 g/day), or a matching dose of non-deuterated ethyl linoleate as comparator for 28 days.
(§1) The primary study objectives were to evaluate the safety and tolerability of orally administered 11,11-D2-linoleic acid ethyl ester. Additional study objectives included identifying the PK of 11,11-D2-linoleic acid ethyl ester following single and multiple oral dose administration and establishing an optimum dose of 11,11-D2-linoleic acid ethyl ester. Additional clinical testing consisted of the Friedreich's Ataxia Rating Scale (FARS)-Neurological point (FARS-Neuro), the timed 25-foot walk (T25FW) with an electronic sensor to measure multiaxis components of motion during the study, and cardiopulmonary exercise testing (CPET). The CPET was performed on an electronically braked cycle ergometer (Lode Corival, Groningen, The Netherlands). The protocol included: 5 minutes of rest; 3 minutes of an unloaded cycling warm-up; a progressive protocol with increased workload each minute (5-25 watts based on estimated functional capacity); 2 minutes of an unloaded cycling recovery; and 10 minutes of passive recovery. Heart rate (HR), blood pressure (BP), ratings of perceived exertion (RPE), pulse oximetry, and expired gases were monitored in accord with standard exercise testing guidelines. Scc Pescatello et al., Thompson P. ACSM's Guidelines for Exercise Testing and Prescription. Baltimore, MD: Wolters Kluwer; 2014:114-141. Heart rate was measured by electrocardiogra (Pulse Biomedical, King of Prussia, PA), BP was determined by auscultation, RPE was estimated using the standard 6 to 20 scale, and expired gases were collected through a silicone rubber mask (Hans Rudolph, Shawnee, KS) and analyzed continuously using a metabolic cart (Parvomedics, AQ5 Sandy, UT) Vacumetrics (Ventura, CA). Endpoints of interest were peak oxygen consumption (VO2 peak) and peak workload. All other variables were primarily assessed to monitor patient safety and progress during the exercise trial.
The study included male or female participants, aged 18 to 50 years, with a FRDA onset at equal or less than 25 years of age, homozygosity for GAA repeat expansions in FXN, and FARS-Neuro range of 20 to 90 points. Participants were ambulatory (with or without assistive device), capable of performing other assessments/evaluations, with a body mass index (BMI) equal or less than 34 kg/m^2. Subjects were agreeable to dietary restriction coaching from a diet counselor to lower PUFA dietary intake, for maximal incorporation of 11,11-D2-linoleic acid ethyl ester. Sample size was selected to ensure 12 fully evaluable patients for active treatment and 6 patients for the comparator treatment. It was not powered, but considered adequate for a first-in-human trial of 11,11-D2-linoleic acid ethyl ester.
A randomization schedule was generated before the first dosing period by Agility Clinical, Inc. (Carlsbad, CA) that followed their established standard operating procedures regarding generation, security, and distribution of the randomization scheme. Patients who provided informed consent and met all enrollment criteria were randomized into the study. In order to randomize a patient, the site contacted the unblinded statistician at Agility, Inc to identify which kit should be provided to the patient.
Patients were randomly assigned to receive one of two treatments (11,11,D2-linoleic acid ethyl ester or comparator) following a 2:1 ratio, respectively. The study sponsor, investigators, research pharmacy, and patients were blinded to the subject's treatment. […]

[2] = Plasma PK by LC-MS (D2-LA, LA, D2-AA) in the phase I/II trial
Procedure: (§2) PK samples were obtained predose and at 0.5, 1, 1.5, 2, 4, 6, 8, 12, 16, and 24 hours following the first dose and 14, 28, 29, 30, and 31 days following enrollment. The samples taken on Days 29-31 represent Isotopically modified polyunsaturated fatty acid, ester, thioester, amide, or other prodrug thereof (e.g., 11,11,D2-linoleic acid ethyl ester) washout levels. D2-LA, linoleic acid (LA), deuterated arachidonic acid (D2-AA), and arachidonic acid (ARA) concentrations were measured in the samples.
(§3) Plasma concentrations of 11,11-D2-linoleic acid ethyl ester (combined free acid form and ester form) and non-deuterated analogs were determined by liquid chromatography and mass spectrometry (LCMS). Blood was collected in K2EDTA anticoagulant tubes, centrifuged to obtain plasma and red blood cells (RBCs), and frozen until analyzed. The samples were hydrolyzed to free fatty acids and analyzed by high performance LC-MS by Good Laboratory Practice validated methods. Low-intensity D2 and high-intensity H2 signals were measured with high accuracy at Ricerca Biosciences, using an AB SCIEX 6500 tandem-quadrupole MS. The 13C2 isotopomer signal was used as a calibration standard for 11,11,D2-linoleic acid ethyl ester; a polydeuterated internal standard was utilized. The enzymatic elongation/desaturation metabolite, 13,13-D2-arachidonic acid (D2-AA), was also measured, in plasma and red blood cells (RBCs).

[3] = Red blood cell (RBC) concentrations by LC-MS in the phase I/II trial; type: in vivo, human
Procedure: as §2, §3
The ability of 11,11-D2-linoleic acid ethyl ester to enter the cellular membrane compartment was assessed by measuring 11,11-D2-linoleic acid ethyl ester and LA concentration in RBCs during the 28-day period.

[4] = system: Friedreich's ataxia patients; experiment: Cardiopulmonary exercise testing (CPET): peak workload, VO2max; type: in vivo, human; settings: for Median change from baseline in peak oxygen consumption (VO2max): baseline to day 28, P=0.116
Description: as §1
Four protocol-defined outcomes (peak workload, VO2max, FARS-Neuro, and T25FW) were examined to explore for possible endpoints for future studies in FRDA. Nonparametric statistics were used to compare the results of those receiving 11,11-D2-linoleic acid ethyl ester to comparator. A modified intention-to-treat (mITT) population was used for the VO2max and peak workload testing analysis because 2 subjects were unable to complete the exercise test. One subject was unable to establish required pedal cadence, and the test was terminated at the conclusion of the warm-up at baseline and day 27 and 1 subject had to stop the day 27 testing because the subject's knees were hitting together and the subject was unable to maintain the RPM. […] After Bonferroni adjustment for testing the four outcomes, the change in peak workload between study drug and comparator remained significant (P=0.032). This Bonferroni adjustment is standard in early-stage trials to analyze both prospective or post-hoc data from multiple exploratory efficacy endpoints in order, to determine the most suitable primary endpoint for subsequent pivotal trials.

[5] = system: Friedreich's ataxia patients; experiment: Friedreich's Ataxia Rating Scale-Neurological (FARS-Neuro); type: in vivo, human
Description: as §1, with “The protocol included: 5 minutes of rest; 3 minutes of an unloaded cycling warm-up; a progressive protocol with increased workload each minute (5-25 watts based on estimated functional capacity); 2 minutes of an unloaded cycling recovery; and 10 minutes of passive recovery.” left out, “Scc Pescatello et al., Thompson P. ACSM's Guidelines for Exercise Testing and Prescription. Baltimore, MD: Wolters Kluwer; 2014:114-141.” left out, “Endpoints of interest were peak oxygen consumption (VO2 peak) and peak workload.” left out, “trial. […]” for “trial.”

[6] = system: Friedreich's ataxia patients; experiment: Timed 25-foot walk (T25FW) with electronic motion sensor or stopwatch; type: in vivo, human
Description: as §1, with “The protocol included: 5 minutes of rest; 3 minutes of an unloaded cycling warm-up; a progressive protocol with increased workload each minute (5-25 watts based on estimated functional capacity); 2 minutes of an unloaded cycling recovery; and 10 minutes of passive recovery.” left out, “Scc Pescatello et al., Thompson P. ACSM's Guidelines for Exercise Testing and Prescription. Baltimore, MD: Wolters Kluwer; 2014:114-141.” left out, “Endpoints of interest were peak oxygen consumption (VO2 peak) and peak workload.” left out, “trial. […]” for “trial.”

[7] = drug group, cohort 2 (4.5 g BID), 28 days

## [2H]C([2H])(/C=C\CCCCC)/C=C\CCCCCCCC(=O)OCC [11,11-D2-linoleic acid ethyl ester]
[1]; [7]
  Diarrhea assessed as "possibly related to study drug": 3 subjects
  Diarrhea assessed as "probably related to study drug": 1 subject
[1]; high-dose group (cohort 2), BMI 15.4, within the first week
  Subjects who discontinued the study because of steatorrhea: One
[1]; 28 days
  Safety and tolerability: safe and tolerable
[1]; 28 days, listed as 11,11,D2-linoleic acid ethyl ester
  Safety and tolerability: well tolerated
[2]; human, in vivo
  Increase of day 28 24-hour AUC when the daily dose was increased 5-fold: approximately 4 fold
[2]; in vivo
  Time of maximum plasma D2-LA concentration: 8 to 10 h
[2]; in vivo, po
  Time to steady state in the plasma and in RBCs: ≤ 28 days
[3]; cohort 1
  RBC concentration of D2-LA as percentage of total LA (D2-LA plus LA), mean: 6.52%
[3]; cohort 2
  RBC concentration of D2-LA as percentage of total LA (D2-LA plus LA), mean: 25.8%
[3]; day 28, cohort 1 (1.8 g QD)
  Mean RBC concentration of D2-LA: 14.6 ± 8.7 µg/mL
[3]; day 28, cohort 2 (4.5 g BID)
  Mean RBC concentration of D2-LA: 26.1 ± 19.2 µg/mL
[4]; baseline to day 28
  Change in VO2max between drug and comparator: 17.5%
[4]
  Median change from baseline in peak oxygen consumption (VO2max): 0.14 L/min
[4]; baseline to day 28, mITT
  Change in peak workload in the drug group at study end-point: 25.7%
[4]; study drug (n=10) versus comparator (n=6), mITT, P=0.008
  Improvement in peak workload from baseline to day 28: 0.16 watts/kg
[5]; baseline to day 28
  Median decrease in FARS-Neuro: 4.75 FARS points
[5]; baseline to day 28, P=0.348 ITT
  Difference in FARS points decrease between drug and placebo groups: 1.95 FARS points
[6]; P=0.88
  T25FW^−1 time, traditionally measured (by stopwatch): no signal of significance
[6]; electronic motion sensing device on the ankle, 25-foot timed walk, P=0.15 ITT
  Improvement of stride speed (stride time)^−1: 7%

## [2H]C([2H])(/C=C\C/C=C\C/C=C\CCCC(=O)O)/C=C\CCCCC [D2-AA, 13,13-D2-arachidonic acid]
[2]; high dose (4.5 g BID), 72-hour period after the last dose (day 28)
  Mean plasma concentration of D2-AA: around 22 μg/mL
[2]; high dose, predose baseline and day 1, LOQ 1 μg/mL
  Plasma concentration of D2-AA (metabolite): below or slightly above the LOQ
[2]; low dose 11,11-D2-linoleic acid ethyl ester, day 1
  Plasma concentration of D2-AA (metabolite): below quantitation
[2]; low dose (1.8 g QD), after day 28
  Mean plasma concentration of D2-AA, maximum at 32 hours after the last dose: 5530 ng/mL
[2]; low dose (1.8 g QD), day 28
  Mean plasma concentration of D2-AA, maximum at 6 hours after the last dose: 3860 ng/mL

## CCCCC/C=C\C/C=C\CCCCCCCC(=O)OCC [comparator, ethyl linoleate, reference compound]
[1]; both, human, in vivo, 28 days
  Diarrhea (TEAE): 1 subject
[4]
  Median change from baseline in peak oxygen consumption (VO2max): -0.02 L/min
